# US20160120848A1, “SPECIFIC CANCER TREATMENT REGIMES WITH GANETESPIB” (SYNTA PHARMACEUTICALS CORP., priority 2013, published 2016)
# Tests used:
# [1] = tested on: advanced solid tumor malignancies; experiment: Phase I study of ganetespib monotherapy in advanced solid tumor malignancies; type: in vivo, patients; conditions: ganetespib monotherapy 75 or 150 mg/m^2, Days 1 and 15 of 3-week cycle
# Method: A total of 3 (three) cohorts are treated in this study. All patients are hospitalized for the duration of Cycle 1, Days 1 through 21.
# In the first cohort (Cohort 1), patients with advanced solid tumor malignancies are treated with 75 mg/m^2 of ganetespib monotherapy. In the second cohort (Cohort 2), patients with advanced solid tumor malignancies are treated with 150 mg/m^2 of ganetespib monotherapy. In the third cohort (Cohort 3), patients with advanced NSCLC are treated with ganetespib (150 mg/m^2) in combination with docetaxel (75 mg/m^2). In the case of intolerability of the third cohort's combination regimen, in a fourth cohort (Cohort 4), patients with advanced NSCLC are treated with ganetespib (150 mg/m^2) in combination with docetaxel (60 mg/m^2).
# Each cohort enrolls 3 to 6 patients, depending on toxicity and the inclusion of Cohort 4. A total of 9 patients are enrolled at the recommended combination dose level to better characterize the safety and PK profiles. Each cohort consists of a maximum of 6 evaluable patients, except for the recommended combination dose level, which enrolls a total of 9 patients. Patients who discontinue from the study for reasons other than DLT (dose-limiting toxicity) before completing Cycle 1 are replaced. For all cohorts, patients are hospitalized for the duration of Cycle 1, Days 1 through 21. […]
# [2] = tested on: non-small cell lung cancer; experiment: Phase I study of ganetespib with cisplatin/pemetrexed, carboplatin/pemetrexed or carboplatin/paclitaxel; type: in vivo, patients; conditions: combination with cisplatin/pemetrexed
# Source text: This is a Phase 1, open-label, dose-escalation study in patients with advanced NSCLC with adenocarcinoma histology.
# Cohort 1: patients treated with ganetespib, cisplatin and pemetrexed
# Cohort 2: patients treated with ganetespib, carboplatin and pemetrexed
# Cohort 3: patients treated with ganetespib, carboplatin and paclitaxel
# In Cohort 1, one treatment cycle consists of treatment with ganetespib, cisplatin and pemetrexed on Day 1, and ganetespib on Day 15
# In Cohort 2, one treatment cycle consists of treatment with ganetespib, carboplatin and pemetrexed on Day 1, and ganetespib on Day 15
# In Cohort 3, one treatment cycle consists of treatment with ganetespib, carboplatin and paclitaxel on Day 1, and ganetespib on Day 15
# Treatment cycles are repeated every 3 weeks. The total planned number of combination cycles is 4. Ganetespib is administered on Days 1 and 15 of each cycle; cisplatin and pemetrexed, carboplatin and pemetrexed, or carboplatin and paclitaxel are administered on Day 1 of each cycle. Each agent is administered as a separate infusion (see Dose-Escalation Table below). […]
# Duration of treatment: the duration of the combination treatment for each regimen is 4 treatment cycles, if tolerated. Patients who complete 4 combination-treatment cycles are evaluated for tumor disease response, general performance status and toxicities. […]
smiles,measurement,setting,value
CC(C)c1cc(-c2n[nH]c(=O)n2-c2ccc3c(ccn3C)c2)c(O)cc1O [ganetespib],efficacy,[1],efficacious
same,safety profile,[1],good safety profile
same,efficacy,[2],efficacious
same,safety profile,[2],good safety profile
